Molecules are shown by their SMILES. Where two headings read alike, the source gives them in different places.

In test [1] the test system is clusters of grape (variety: Crimson). The test is described as follows: Estimated transpiration ratio of grape clusters (Example 9). Conditions: 10 g/L; 8 days after treatment. It is filed as in vivo.
In test [2] the test system is Tomato. Conditions: 6 days after treatment.
Test [3] has as its system fruit of grape (variety: Red Globe). The procedure:
An agent for increasing a sugar content in a fruit (containing Sorbon T-20 as a spreader/sticker at a final concentration of 200 μL/L) diluted with water to have a potassium hydrogen carbonate concentration of 10 g/L was prepared. The mass of fruit of grape (variety: Red Globe) purchased on the market was measured. Then, the prepared agent for increasing a sugar content in a fruit was applied by spraying to the fruit of grape. Then, the fruit of grape was allowed to stand in an air-conditioned greenhouse (temperature: 25° C.), and the mass was measured over time (date of application: Apr. 27, 2011; dates of test: May 2, 2011, May 6, 2011, May 9, 2011, May 11, 2011, May 13, 2011, and May 16, 2011). In addition, as a control, the mass of untreated grape was measured on each date of measurement in the same manner.
On the basis of the measured mass, the estimated amount (cumulative value) of transpiration and the estimated amount of transpiration per day were calculated. The results are shown in Tables 5 and 6 and FIGS. 10 and 11.
Note that the vertical axis in FIG. 10 represents the mass (g) of the fruit of grape on each of the dates of measurement per 100 g of the fruit of grape on the date of application, and the vertical axis in FIG. 11 represents the estimated amount (g) of transpiration on each of the dates of measurement per 100 g of the fruit of grape on the date of application. The estimated amount (g) of transpiration on each of the dates of measurement per 100 g of the fruit of grape on the date of application=(the mass (g) of the fruit of grape on the date of application−the mass (g) of the fruit of grape on the date of measurement)/the mass of the fruit of grape on the date of application×100

Test [4] deals with Mikan. As to conditions: 6 days after treatment.
Test [5] relates to harvested fruit of grape (variety: Barikan). The procedure:
The fruit of grape was maintained in an air-conditioned greenhouse (temperature: 25° C.), and measured for the mass over time. The sugar content of the fruit was measured before the application and 8 days after the application with a sugar content meter. Next, on the assumption that the change in the mass of the fruit was entirely due to the change in water content, calculated values of the amount of decrease in mass and the sugar content on the date (June 2) of the application were determined […] by using the following calculation formula. (Calculated as follows: the sugar content (%) calculated value))=the sugar content (%) before application×the mass (g) on the date of application/the mass (g) on the date of measurement))

Setting [6] is: 10 g/L, 25° C., mass 100 g on date of application.

`O=C([O-])[O-].[Mg+2]` [Magnesium carbonate, magnesium carbonate]: in test [1], the “Estimated transpiration ratio (%) Average” value is 32% and the “Estimated transpiration ratio (%) First” value is given as 32%.

Consider `O=S(=O)([O-])[O-].[Mg+2]` [Magnesium sulfate, reference compound], for which, in test [1], the “Estimated transpiration ratio (%) Average” value was 23% and the “Estimated transpiration ratio (%) First” value is recorded as 23%.

Turning to `[Cl-].[K+]` [Potassium chloride, reference compound], in test [1], the “Estimated transpiration ratio (%) Average” value is on record as 25% and the “Estimated transpiration ratio (%) First” value is on record as 25%.

On to `O=S(=O)([O-])[O-].[K+].[K+]` [Potassium sulfate, reference compound], for which, in test [1], the “Estimated transpiration ratio (%) Average” value is given as 24% and the “Estimated transpiration ratio (%) First” value is 24%.

In the case of `O=P([O-])([O-])O.[K+].[K+]` [Dipotassium hydrogen phosphate, dipotassium hydrogen phosphate], in test [1], the “Estimated transpiration ratio (%) Average” value is on record as 28% and the “Estimated transpiration ratio (%) First” value was 28%.

Turning to `[Cl-].[Cl-].[Mg+2]` [Magnesium chloride, reference compound], in test [1], the “Estimated transpiration ratio (%) Average” value is reported as 25% and the “Estimated transpiration ratio (%) First” value is 25%.

Regarding `O=C([O-])C(O)C(O)C(=O)[O-].[K+].[K+]` (racemic) [DL-Potassium tartrate, reference compound], in test [1], the “Estimated transpiration ratio (%) Average” value was 22% and the “Estimated transpiration ratio (%) First” value is on record as 22%.

As to `O=C([O-])O.[Na+]` [Sodium hydrogen carbonate, sodium hydrogen carbonate], the “Ratio (%) of decrease in body weight of fruit” value (“Ratio (%) of decrease” below) in test [2] (dilution ratio 100 (10 g/L)) is 12.8%; in test [4] (dilution ratio 100 (10 g/L)), 11.4%. Moreover, in test [1], the “Estimated transpiration ratio (%) Average” value is 30%. In addition, the “Estimated transpiration ratio (%) First” value in test [1] is on record as 33%. Further, the “Estimated transpiration ratio (%) Second” value in test [1] was 28%. The “Estimated amount (g) of transpiration per 100 g of fruit on date of application” value in test [3] (5 days later) was 12.4 g; in test [3] (9 days later) it was 21.7 g; in test [3] (12 days later), 27.3 g; in test [3] (14 days later) it was 31.5 g; in test [3] (16 days later) it was 35.6 g; in test [3] (19 days later), 41.5 g. Further, the “Mass (g) of fruit per 100 g of fruit on date of application” value (“Mass (g) of fruit per 100 g of fruit” for short) came to 87.6 g in test [3] (5 days later (applied Apr. 27)); 78.3 g in test [3] (9 days later); 72.7 g in test [3] (12 days later); 68.5 g in test [3] (14 days later); 64.4 g in test [3] (16 days later); 58.5 g in test [3] (19 days later).

Take `O=P([O-])([O-])O.[Na+].[Na+]` [Disodium hydrogen phosphate, disodium hydrogen phosphate]: in test [1], the “Estimated transpiration ratio (%) Average” value was 31%, the “Estimated transpiration ratio (%) First” value is listed as 35% and the “Estimated transpiration ratio (%) Second” value was 28%.

On to `CC(O)C(=O)[O-].[Na+]` (racemic) [DL-Sodium lactate, reference compound], for which, in test [1], the “Estimated transpiration ratio (%) Average” value is 26%, the “Estimated transpiration ratio (%) First” value is listed as 26% and the “Estimated transpiration ratio (%) Second” value was 25%.

As to `CC(=O)[O-].O.O.O.[Na+]` [Sodium acetate trihydrate], in test [1], the “Estimated transpiration ratio (%) Average” value was 34%, the “Estimated transpiration ratio (%) First” value is 35% and the “Estimated transpiration ratio (%) Second” value is on record as 33%.

Regarding `N.N.O=C(O)O` [Ammonium carbonate, reference compound], in test [1], the “Estimated transpiration ratio (%) Average” value was 26%, the “Estimated transpiration ratio (%) First” value was 25% and the “Estimated transpiration ratio (%) Second” value is given as 28%.

For `O=C([O-])[O-].[Na+].[Na+]` [Sodium carbonate, sodium carbonate], the results for the “Ratio (%) of decrease” value in test [2] (dilution ratio 100 (10 g/L)) and in test [4] (dilution ratio 100 (10 g/L)) were 12.7% and 10.4%, respectively. Further, the “Estimated transpiration ratio (%) Average” value in test [1] was 32%. The “Estimated transpiration ratio (%) First” value in test [1] is given as 32%. The “Estimated amount (g) of transpiration per 100 g of fruit on date of application” value in test [3] (5 days later) is on record as 14.1 g; in test [3] (9 days later) it was 24.1 g; in test [3] (12 days later) it was 30.3 g; in test [3] (14 days later), 34.6 g; in test [3] (16 days later), 38.7 g; in test [3] (19 days later), 44.5 g. Moreover, the “Mass (g) of fruit per 100 g of fruit” value is reported as 85.9 g in test [3] (5 days later (applied Apr. 27)); 75.9 g in test [3] (9 days later); 69.7 g in test [3] (12 days later); 65.4 g in test [3] (14 days later); 61.3 g in test [3] (16 days later); 55.5 g in test [3] (19 days later).

Take `[Ca+2].[Cl-].[Cl-]` [Calcium chloride, reference compound]: the “Sugar content (%) 8 days later, actually measured value” in test [5] (10 g/L, 25° C.) was 20.0%. In test [5] (setting [6]), the “Mass (g) 6 days later (Jun. 8)” value came out at 86.3 g and the “Mass (g) 8 days later (Jun. 10)” value was determined as 81.9 g. The “action to increase the sugar content in the fruit (comparison)” value in test [5] (10 g/L, 8 days) was “almost the same as that of the untreated group”. In test [5] (10 g/L, calculated from decrease in mass), the “Sugar content (%) 8 days later, calculated value” is 20.8%. Also, in test [5] (before application), the “Sugar content (%) on date of application (Jun. 2)” value is recorded as 17.0%.

Consider `[Cl-].[Na+]` [Sodium chloride, reference compound], for which, in test [1], the “Estimated transpiration ratio (%) Average” value was 22% and the “Estimated transpiration ratio (%) First” value is reported as 22%.

Take `O=C([O-])CC(O)(CC(=O)[O-])C(=O)[O-].[K+].[K+].[K+]` [Tripotassium citrate]: in test [1], the “Estimated transpiration ratio (%) Average” value is reported as 30%, the “Estimated transpiration ratio (%) First” value is 32% and the “Estimated transpiration ratio (%) Second” value is 28%.

On to `N.N.O=S(=O)(O)O` [Ammonium sulfate, reference compound], for which, in test [1], the “Estimated transpiration ratio (%) Average” value is listed as 22%, the “Estimated transpiration ratio (%) First” value is recorded as 21% and the “Estimated transpiration ratio (%) Second” value is on record as 23%.

With `CC(=O)[O-].[K+]` [Potassium acetate, potassium acetate], in test [1], the “Estimated transpiration ratio (%) Average” value is reported as 35%, the “Estimated transpiration ratio (%) First” value is on record as 35% and the “Estimated transpiration ratio (%) Second” value is reported as 35%.

Take `O=C([O-])CCC(=O)[O-].[Na+].[Na+]` [Disodium succinate]: in test [1], the “Estimated transpiration ratio (%) Average” value is given as 31% and the “Estimated transpiration ratio (%) First” value is 31%.

`CC(=O)[O-].[Na+]` [Sodium acetate, sodium acetate]: the “Ratio (%) of decrease” value in test [2] (dilution ratio 50 (20 g/L)) is given as 14.5%; in test [2] (dilution ratio 100 (10 g/L)) it was 15.6%; in test [4] (dilution ratio 50 (20 g/L)) it was 11.4%; in test [4] (dilution ratio 100 (10 g/L)) it was 11.2%.

For `O=P([O-])([O-])[O-].[K+].[K+].[K+]` [Tripotassium phosphate, tripotassium phosphate], the “Estimated amount (g) of transpiration per 100 g of fruit on date of application” value was 15.9 g in test [3] (5 days later); 26.3 g in test [3] (9 days later); 33.1 g in test [3] (12 days later); 37.6 g in test [3] (14 days later); 41.1 g in test [3] (16 days later); 47.4 g in test [3] (19 days later). Besides, the “Mass (g) of fruit per 100 g of fruit” value is 84.1 g in test [3] (5 days later (applied Apr. 27)); 73.7 g in test [3] (9 days later); 66.9 g in test [3] (12 days later); 62.4 g in test [3] (14 days later); 58.3 g in test [3] (16 days later); 52.8 g in test [3] (19 days later).

(Values after US10080366B2, “Agent for increasing sugar content in fruit” (RIKEN, priority 2012, dated 2018).)
